Source: PubChem BioAssay (NCI)
Where “and” joins values, the source holds several entries; their conditions need not be identical. Identical values can stand only once.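 Exposure lasted 48 hours, with cells grown in 96-well plates and compounds tested at five concentrations. GI50 = concentration required for 50% inhibition of growth. Definition used: TGI = concentration required for complete inhibition of growth.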

Legend:
Assay in all cases: NCI-60 cell line screen, 48 h
[1] = system: SK-OV-3 ovarian
[2] = system: HCT-15 colon
[3] = system: UO-31 renal
[4] = system: DU-145 prostate
[5] = system: MCF7 breast
[6] = system: HL-60(TB) leukemia
[7] = system: HT29 colon
[8] = system: MALME-3M melanoma

Row | Structure (SMILES) | GI50 [1] | TGI [1] | GI50 [2] | TGI [2] | GI50 [3] | TGI [3] | GI50 [4] | TGI [4] | GI50 [5] | TGI [5] | GI50 [6] | TGI [6] [µM] | GI50 [7] | TGI [7] | GI50 [8] | TGI [8]
1 | O=C(NCCN1CCOCC1)OCc1nc2nc(Cl)nc(N3CCOCC3)c2[nH]1 | 5.28 µM | > 100 µM | 3.09 µM | > 100 µM | 4.25 µM | > 100 µM | 2.37 µM | 7.79 µM | 2.02 µM | > 100 µM | 1.61 µM | 6.83 | > 100 µM | > 100 µM | 4.41 µM | > 100 µM
2 | COc1ccc2c(c1)/C(=C\c1ccncc1)C(=O)N2 | 19.5 µM | 79.9 µM | 2.97 µM | 13.1 µM | 6.73 µM | 19.3 µM | 14.2 µM | 34.3 µM | 8.68 µM | > 100 µM | 6.8 µM | > 100 |  |  |  | 
3 | COc1ccc2c(c1)nc(NNC(=O)c1cnccn1)c1cccn12 | 0.281 µM | 3 µM | 0.0631 µM | 43 µM | 0.0848 µM | 1.51 µM | 0.156 µM | 6.3 µM | 0.266 µM | 1.86 µM | 0.257 µM |  | 0.354 µM |  | 1.06 µM | 2.93 µM
4 | O=C1NC(N/N=C\C(O)C(O)C(O)C(O)CO)=N/C1=C/c1ccccc1 (stereo unspecified) | > 100 µM and 20.2 µM | > 100 µM and 37.8 µM | 51.9 µM and 12.7 µM and > 100 µM | > 100 µM and 33.8 µM | > 100 µM and 17.3 µM | > 100 µM and 32.2 µM | > 100 µM and 17.6 µM | > 100 µM and 48.9 µM | 40.3 µM and 13.5 µM and > 61.4 µM | > 100 µM and 30.7 µM | 77.2 µM and 41.8 µM and > 100 µM | > 100 | > 100 µM and 23.2 µM | > 100 µM and 44.5 µM | > 100 µM and 19.3 µM | > 100 µM and 37.6 µM
5 | COc1ccc2c(c1)[n+](=O)c(C(=O)c1cccs1)c(C(F)(F)F)n2[O-] | 6.41 µM | > 50 µM |  |  | 1.83 µM | 17.6 µM | 2.57 µM | 12.7 µM | 4.58 µM | 23.7 µM | 4.04 µM | > 50 | 8.65 µM | > 50 µM |  | 
6 | Oc1c(C(Nc2ccccc2Br)c2ccccc2)ccc2cccnc12 (stereo unspecified) | 3.24 µM | 78.5 µM | 0.672 µM | 27.3 µM | 1.32 µM | 45.8 µM | 4.81 µM | > 100 µM | 1.56 µM | 65.1 µM | 2.34 µM | 6.25 | 3.85 µM | 84.3 µM | 4.42 µM | 29.2 µM
7 | O=S(=O)(NC1CCCCC1)c1ccc2c(c1)OCCOCCOCCOCCO2 |  | > 100 µM |  | > 100 µM |  | > 100 µM |  | > 100 µM |  | > 100 µM |  | > 100 |  | > 100 µM |  | > 100 µM
8 | COc1ccccc1/C=C1\COc2ccc(-c3ccccc3)cc2C1=O | 3.7 µM | > 100 µM | 2.64 µM | 13.1 µM | 8.93 µM | 37.3 µM | 2.53 µM | 6.63 µM | 2.4 µM |  | 1.86 µM | > 100 |  |  | 3.81 µM | 40.4 µM
9 | C/C(=C\c1ccn(-c2ccccc2N)n1)[C@@H]1C[C@@H]2O[C@]2(C)CCC[C@H](C)[C@H](O)[C@@H](C)C(=O)C(C)(C)[C@@H](O)CC(=O)O1 | 0.081 µM | > 50 µM | 0.0393 µM | > 50 µM | 0.302 µM | > 50 µM | 0.0564 µM | 0.402 µM | 0.0168 µM | > 50 µM | 0.0329 µM | 0.228 | 0.0206 µM | > 50 µM | 0.127 µM | > 50 µM
10 | O=C(O)C(Cc1cnc[nH]1)N1C(=O)c2ccccc2C1=O (stereo unspecified) |  |  |  | > 100 µM |  | > 100 µM |  | > 100 µM |  | > 100 µM |  |  |  | > 100 µM |  | > 100 µM
11 | CCCCCCCCCCCC1=NC(C)(C)CN1C(C)(C)CO | 3.8 µM | 12.4 µM | 2.15 µM | 4.74 µM | 2.03 µM | 8.42 µM | 3.12 µM | 15.3 µM | 2.48 µM | 5.64 µM | 1.77 µM | 4.66 | 1.92 µM | 4.1 µM |  | 
12 | CN1C(=O)c2ccc3ccccc3c2C1=O |  | > 100 µM |  | > 100 µM |  | > 100 µM |  | > 100 µM |  | > 100 µM |  | > 100 |  | > 100 µM |  | 
13 | C=C1C(=O)O[C@H]2[C@H]1CC/C(COC(=O)CCCCCC(=O)OC/C1=C/CC[C@@]3(C)O[C@H]3[C@H]3OC(=O)C(=C)[C@@H]3CC1)=C\CC[C@@]1(C)O[C@@H]21 | 12 µM | 31 µM | 1.68 µM | 3.81 µM | 1.25 µM | 2.86 µM | 3.19 µM | 12.1 µM |  |  | 0.694 µM | 3.66 | 1.97 µM | 3.84 µM | 2.09 µM | 5.08 µM
14 | Cc1ccc(/C=C/c2c(C(=O)/C=C/c3ccccc3)c(C)nc3ccccc23)cc1 |  |  | 1.32 µM | 3.24 µM | 1.26 µM | 2.52 µM | 1.65 µM | 3.15 µM |  |  | 2.04 µM | 4.89 | 1.63 µM | 9.5 µM | 1.74 µM | 3.18 µM
15 | COc1ccc(-c2cc(=O)n(-c3nc4ccccc4[nH]3)[nH]2)cc1OC | 35.3 µM | > 100 µM | 3.7 µM | > 100 µM | 3.2 µM | 18.6 µM | 17.5 µM | > 100 µM | 4.74 µM | > 100 µM | 3.59 µM | 19.6 | 30.5 µM | > 100 µM |  | 
16 | O=C(Oc1cccc(Cl)c1)c1ccccc1Nc1ccnc(C(F)(F)F)c1 |  |  |  |  | 23.5 µM | > 100 µM | 14.2 µM | 27.6 µM | 4.78 µM | 20 µM | 12.8 µM | > 100 |  |  |  | 
17 | CCCn1c2c(c3c(O)cccc31)C(=O)c1ccccc1-2 | 23.7 µM | > 100 µM | 34.1 µM | > 100 µM | 22.8 µM | > 100 µM | 23.4 µM | > 100 µM | 58 µM | > 100 µM |  |  | 29.7 µM | > 100 µM | 64.6 µM | > 100 µM
18 | CNC(=O)NCC1OC(n2cnc3c(NC(=O)Nc4ccccc4)ncnc32)C(O[Si](C)(C)C(C)(C)C)C1O[Si](C)(C)C(C)(C)C (stereo unspecified) | 6.88 µM | > 100 µM | 3.62 µM | > 100 µM | 2.5 µM | 9.56 µM | 2.58 µM | 5.71 µM | 2.69 µM | 19.4 µM |  |  | 2.02 µM | 3.74 µM | 2.98 µM | 9.84 µM
